Assay results as given in ChEMBL document CHEMBL1153464.

Legend:
[1] = target: Tyrosine-protein kinase ABL1 (Homo sapiens) (UniProt P00519); assay: Inhibition of Abl at 10 uM by HotSpot assay relative to control
[2] = tested on: RAC-alpha serine/threonine-protein kinase (Homo sapiens), P31749 [S473D]; assay: Inhibition of AKT1 dPH, S473D mutant at 10 uM by HotSpot assay relative to control
[3] = target: Aurora kinase A (Homo sapiens) (UniProt O14965); assay: Inhibition of Aurora-A at 10 uM by HotSpot assay relative to control
[4] = target: Serine/threonine-protein kinase B-raf (Homo sapiens) (UniProt P15056); assay: Inhibition of BRAF at 10 uM by HotSpot assay relative to control
[5] = target: Cyclin-dependent kinase 1/cyclin B1 (Homo sapiens) (UniProt P06493+P14635); assay: Inhibition of CDK1/Cyclin B at 10 uM by HotSpot assay relative to control; type: protein-complex assay
[6] = target: Serine/threonine-protein kinase Chk1 (Homo sapiens) (UniProt O14757); assay: Inhibition of CHEK1 at 10 uM by HotSpot assay relative to control
[7] = target: Casein kinase I isoform epsilon (Homo sapiens) (UniProt P49674); assay: Inhibition of CK1epsilon at 10 uM by HotSpot assay relative to control
[8] = target: Mast/stem cell growth factor receptor Kit (Homo sapiens) (UniProt P10721); assay: Inhibition of c-kit at 10 uM by HotSpot assay relative to control
[9] = target: Hepatocyte growth factor receptor (Homo sapiens) (UniProt P08581); assay: Inhibition of c-MET at 10 uM by HotSpot assay relative to control
[10] = target: Proto-oncogene tyrosine-protein kinase Src (Homo sapiens) (UniProt P12931); assay: Inhibition of c-Src at 10 uM by HotSpot assay relative to control
[11] = target: Death-associated protein kinase 1 (Homo sapiens) (UniProt P53355); assay: Inhibition of DAPK1 at 10 uM by HotSpot assay relative to control
[12] = target: DNA-dependent protein kinase catalytic subunit (Homo sapiens) (UniProt P78527); assay: Inhibition of DNA-PK at 10 uM by HotSpot assay relative to control
[13] = target: Epidermal growth factor receptor (Homo sapiens) (UniProt P00533); assay: Inhibition of EGFR at 10 uM by HotSpot assay relative to control
[14] = target: Ephrin type-A receptor 1 (Homo sapiens) (UniProt P21709); assay: Inhibition of EPHA1 at 10 uM by HotSpot assay relative to control
Sequence of Ephrin type-A receptor 1 (Homo sapiens) (P21709 whole entry): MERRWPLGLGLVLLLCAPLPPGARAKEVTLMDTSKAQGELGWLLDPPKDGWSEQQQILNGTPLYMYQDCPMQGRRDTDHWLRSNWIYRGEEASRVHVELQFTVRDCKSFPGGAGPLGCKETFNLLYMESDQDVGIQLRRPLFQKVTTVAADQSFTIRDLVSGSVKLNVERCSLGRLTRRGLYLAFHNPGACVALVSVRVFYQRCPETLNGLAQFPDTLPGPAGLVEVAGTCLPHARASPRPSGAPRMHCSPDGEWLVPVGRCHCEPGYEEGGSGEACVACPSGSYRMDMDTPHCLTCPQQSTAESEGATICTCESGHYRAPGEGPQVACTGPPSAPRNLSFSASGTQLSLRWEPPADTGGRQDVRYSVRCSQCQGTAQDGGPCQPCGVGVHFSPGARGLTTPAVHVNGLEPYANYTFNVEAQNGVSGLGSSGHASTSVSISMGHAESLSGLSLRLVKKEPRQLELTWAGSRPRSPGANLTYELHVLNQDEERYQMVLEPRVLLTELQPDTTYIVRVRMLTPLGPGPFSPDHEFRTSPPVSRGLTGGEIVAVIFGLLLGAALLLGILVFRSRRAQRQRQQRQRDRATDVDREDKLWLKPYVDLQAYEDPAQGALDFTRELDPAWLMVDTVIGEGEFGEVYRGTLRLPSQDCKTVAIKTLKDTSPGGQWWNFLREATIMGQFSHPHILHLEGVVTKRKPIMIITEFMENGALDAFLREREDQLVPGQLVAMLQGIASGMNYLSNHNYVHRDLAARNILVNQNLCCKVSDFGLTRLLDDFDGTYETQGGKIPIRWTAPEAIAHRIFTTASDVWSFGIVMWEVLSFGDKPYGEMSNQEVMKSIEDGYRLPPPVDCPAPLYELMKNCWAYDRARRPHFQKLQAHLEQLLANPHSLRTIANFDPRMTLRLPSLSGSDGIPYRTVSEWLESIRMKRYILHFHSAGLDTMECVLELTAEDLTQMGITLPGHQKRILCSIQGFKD

[15] = target: Fibroblast growth factor receptor 1 (Homo sapiens) (UniProt P11362); assay: Inhibition of FGFR1 at 10 uM by HotSpot assay relative to control
[16] = target: Tyrosine-protein kinase Fgr (Homo sapiens) (UniProt P09769); assay: Inhibition of FGR at 10 uM by HotSpot assay relative to control
[17] = target: Vascular endothelial growth factor receptor 1 (Homo sapiens) (UniProt P17948); assay: Inhibition of FLT1 at 10 uM by HotSpot assay relative to control
[18] = target: Tyrosine-protein kinase Fyn (Homo sapiens) (UniProt P06241); assay: Inhibition of FYN at 10 uM by HotSpot assay relative to control
[19] = target: Homeodomain-interacting protein kinase 1 (Homo sapiens) (UniProt Q86Z02); assay: Inhibition of HIPK1 at 10 uM by HotSpot assay relative to control
[20] = target: Inhibitor of nuclear factor kappa-B kinase subunit alpha (Homo sapiens) (UniProt O15111); assay: Inhibition of IKK-alpha at 10 uM by HotSpot assay relative to control
[21] = target: Insulin receptor (Homo sapiens) (UniProt P06213); assay: Inhibition of IR at 10 uM by HotSpot assay relative to control
[22] = target: Tyrosine-protein kinase JAK1 (Homo sapiens) (UniProt P23458); assay: Inhibition of JAK1 at 10 uM by HotSpot assay relative to control
[23] = target: Mitogen-activated protein kinase 8 (Homo sapiens) (UniProt P45983); assay: Inhibition of JNK1-alpha-1 at 10 uM by HotSpot assay relative to control
[24] = target: Vascular endothelial growth factor receptor 2 (Homo sapiens) (UniProt P35968); assay: Inhibition of VEGFR2 at 10 uM by HotSpot assay relative to control
Sequence of Vascular endothelial growth factor receptor 2 (Homo sapiens) (P35968 whole entry): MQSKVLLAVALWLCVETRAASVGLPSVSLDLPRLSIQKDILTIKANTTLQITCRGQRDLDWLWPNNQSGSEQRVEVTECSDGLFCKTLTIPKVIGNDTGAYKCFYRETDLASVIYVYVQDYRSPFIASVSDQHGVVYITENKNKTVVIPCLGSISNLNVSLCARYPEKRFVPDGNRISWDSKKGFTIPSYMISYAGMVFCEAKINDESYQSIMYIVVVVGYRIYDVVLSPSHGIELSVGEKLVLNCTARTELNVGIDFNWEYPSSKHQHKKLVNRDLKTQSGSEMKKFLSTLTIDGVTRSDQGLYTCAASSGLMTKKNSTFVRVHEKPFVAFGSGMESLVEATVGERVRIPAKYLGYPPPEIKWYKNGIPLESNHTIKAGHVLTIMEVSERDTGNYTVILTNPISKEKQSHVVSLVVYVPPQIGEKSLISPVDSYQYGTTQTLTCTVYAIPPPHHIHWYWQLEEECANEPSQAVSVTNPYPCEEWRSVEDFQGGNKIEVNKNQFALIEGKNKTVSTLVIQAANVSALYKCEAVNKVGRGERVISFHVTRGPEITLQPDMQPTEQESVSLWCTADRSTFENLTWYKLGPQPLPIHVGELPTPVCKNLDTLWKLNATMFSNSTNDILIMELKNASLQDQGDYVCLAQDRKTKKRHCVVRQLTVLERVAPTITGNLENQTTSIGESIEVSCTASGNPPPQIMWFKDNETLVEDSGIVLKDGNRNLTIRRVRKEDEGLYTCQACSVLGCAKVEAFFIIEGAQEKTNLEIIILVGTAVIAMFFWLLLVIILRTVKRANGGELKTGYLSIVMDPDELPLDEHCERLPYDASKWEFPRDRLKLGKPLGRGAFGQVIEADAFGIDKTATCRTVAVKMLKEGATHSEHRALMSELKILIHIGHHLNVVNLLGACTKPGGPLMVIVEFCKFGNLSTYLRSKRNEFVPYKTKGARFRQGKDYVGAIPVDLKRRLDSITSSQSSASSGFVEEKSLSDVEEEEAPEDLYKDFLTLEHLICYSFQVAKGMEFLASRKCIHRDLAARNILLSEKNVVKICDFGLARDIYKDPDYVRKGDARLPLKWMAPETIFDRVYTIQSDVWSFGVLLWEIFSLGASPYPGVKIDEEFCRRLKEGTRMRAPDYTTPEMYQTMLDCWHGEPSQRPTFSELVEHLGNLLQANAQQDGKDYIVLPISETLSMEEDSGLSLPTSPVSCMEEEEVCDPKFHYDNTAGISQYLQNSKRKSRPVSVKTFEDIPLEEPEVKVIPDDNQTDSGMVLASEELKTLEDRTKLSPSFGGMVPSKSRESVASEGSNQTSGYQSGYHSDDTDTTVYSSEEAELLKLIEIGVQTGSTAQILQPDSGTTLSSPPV

[25] = target: Tyrosine-protein kinase Lck (Homo sapiens) (UniProt P06239); assay: Inhibition of LCK at 10 uM by HotSpot assay relative to control
[26] = target: Tyrosine-protein kinase Lyn (Homo sapiens) (UniProt P07948); assay: Inhibition of LYN at 10 uM by HotSpot assay relative to control
[27] = target: Dual specificity mitogen-activated protein kinase kinase 1 (Homo sapiens) (UniProt Q02750); assay: Inhibition of MEK1 at 10 uM by HotSpot assay relative to control
Sequence of Dual specificity mitogen-activated protein kinase kinase 1 (Homo sapiens) (Q02750 whole entry): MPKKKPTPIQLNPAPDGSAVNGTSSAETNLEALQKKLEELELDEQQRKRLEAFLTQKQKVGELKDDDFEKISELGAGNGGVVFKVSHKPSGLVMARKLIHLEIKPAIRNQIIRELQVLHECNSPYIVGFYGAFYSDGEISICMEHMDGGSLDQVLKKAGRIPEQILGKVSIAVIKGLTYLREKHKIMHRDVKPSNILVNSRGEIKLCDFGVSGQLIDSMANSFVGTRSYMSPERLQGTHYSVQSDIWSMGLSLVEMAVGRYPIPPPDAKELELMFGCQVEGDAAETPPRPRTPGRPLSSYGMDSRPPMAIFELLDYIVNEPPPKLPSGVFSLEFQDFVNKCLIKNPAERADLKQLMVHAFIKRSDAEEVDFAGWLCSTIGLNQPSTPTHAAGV

[28] = target: Serine/threonine-protein kinase 26 (Homo sapiens) (UniProt Q9P289); assay: Inhibition of MST4 at 10 uM by HotSpot assay relative to control
[29] = target: Muscle, skeletal receptor tyrosine-protein kinase (Homo sapiens) (UniProt O15146); assay: Inhibition of MUSK at 10 uM by HotSpot assay relative to control
[30] = target: Mitogen-activated protein kinase 14 (Homo sapiens) (UniProt Q16539); assay: Inhibition of p38-alpha at 10 uM by HotSpot assay relative to control
[31] = target: Ribosomal protein S6 kinase beta-1 (Homo sapiens) (UniProt P23443); assay: Inhibition of p70S6K at 10 uM by HotSpot assay relative to control
[32] = target: Serine/threonine-protein kinase PAK 4 (Homo sapiens) (UniProt O96013); assay: Inhibition of PAK4 at 10 uM by HotSpot assay relative to control
[33] = target: Serine/threonine-protein kinase pim-1 (Homo sapiens) (UniProt P11309); assay: Inhibition of PIM1 at 10 uM by HotSpot assay relative to control
[34] = target: Protein kinase C alpha type (Homo sapiens) (UniProt P17252); assay: Inhibition of PKCalpha at 10 uM by HotSpot assay relative to control
[35] = target: Serine/threonine-protein kinase PLK1 (Homo sapiens) (UniProt P53350); assay: Inhibition of PLK1 at 10 uM by HotSpot assay relative to control
[36] = target: RAF proto-oncogene serine/threonine-protein kinase (Homo sapiens) (UniProt P04049); assay: Inhibition of RAF1 at 10 uM by HotSpot assay relative to control
Sequence of RAF proto-oncogene serine/threonine-protein kinase (Homo sapiens) (P04049 whole entry): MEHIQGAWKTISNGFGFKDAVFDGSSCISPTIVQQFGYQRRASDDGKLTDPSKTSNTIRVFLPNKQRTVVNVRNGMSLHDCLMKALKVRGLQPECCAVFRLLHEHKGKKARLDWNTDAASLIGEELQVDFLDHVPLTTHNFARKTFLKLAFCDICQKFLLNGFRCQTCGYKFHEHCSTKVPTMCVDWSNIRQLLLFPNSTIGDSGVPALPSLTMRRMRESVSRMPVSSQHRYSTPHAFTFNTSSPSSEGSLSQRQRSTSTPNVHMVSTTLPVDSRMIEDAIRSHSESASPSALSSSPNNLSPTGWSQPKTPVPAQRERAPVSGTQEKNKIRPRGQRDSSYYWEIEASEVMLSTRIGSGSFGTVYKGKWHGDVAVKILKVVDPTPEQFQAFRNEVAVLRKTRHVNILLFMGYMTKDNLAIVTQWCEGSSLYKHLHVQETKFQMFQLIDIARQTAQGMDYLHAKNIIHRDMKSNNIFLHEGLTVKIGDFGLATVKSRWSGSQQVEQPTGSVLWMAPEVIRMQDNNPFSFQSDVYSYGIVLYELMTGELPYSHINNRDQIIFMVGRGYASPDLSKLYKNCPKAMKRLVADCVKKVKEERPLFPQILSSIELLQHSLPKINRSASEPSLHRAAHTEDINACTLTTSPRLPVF

[37] = target: Proto-oncogene tyrosine-protein kinase receptor Ret (Homo sapiens) (UniProt P07949); assay: Inhibition of RET at 10 uM by HotSpot assay relative to control
[38] = target: Rho-associated protein kinase 1 (Homo sapiens) (UniProt Q13464); assay: Inhibition of ROCK-I at 10 uM by HotSpot assay relative to control
[39] = target: Macrophage-stimulating protein receptor (Homo sapiens) (UniProt Q04912); assay: Inhibition of MST1R at 10 uM by HotSpot assay relative to control
[40] = target: Proto-oncogene tyrosine-protein kinase ROS (Homo sapiens) (UniProt P08922); assay: Inhibition of ROS1 at 10 uM by HotSpot assay relative to control
[41] = target: Tyrosine-protein kinase SYK (Homo sapiens) (UniProt P43405); assay: Inhibition of SYK at 10 uM by HotSpot assay relative to control
[42] = target: Angiopoietin-1 receptor (Homo sapiens) (UniProt Q02763); assay: Inhibition of TIE2 at 10 uM by HotSpot assay relative to control
[43] = target: High affinity nerve growth factor receptor (Homo sapiens) (UniProt P04629); assay: Inhibition of TRKA at 10 uM by HotSpot assay relative to control
[44] = target: Tyrosine-protein kinase Yes (Homo sapiens) (UniProt P07947); assay: Inhibition of YES at 10 uM by HotSpot assay relative to control
[45] = target: Focal adhesion kinase 1 (PTK2/FAK) (Homo sapiens) (UniProt Q05397); assay: Inhibition of PTK2 at 10 uM by HotSpot assay relative to control

Sequence of RAC-alpha serine/threonine-protein kinase (Homo sapiens), P31749 [S473D] (P31749 whole entry S473D): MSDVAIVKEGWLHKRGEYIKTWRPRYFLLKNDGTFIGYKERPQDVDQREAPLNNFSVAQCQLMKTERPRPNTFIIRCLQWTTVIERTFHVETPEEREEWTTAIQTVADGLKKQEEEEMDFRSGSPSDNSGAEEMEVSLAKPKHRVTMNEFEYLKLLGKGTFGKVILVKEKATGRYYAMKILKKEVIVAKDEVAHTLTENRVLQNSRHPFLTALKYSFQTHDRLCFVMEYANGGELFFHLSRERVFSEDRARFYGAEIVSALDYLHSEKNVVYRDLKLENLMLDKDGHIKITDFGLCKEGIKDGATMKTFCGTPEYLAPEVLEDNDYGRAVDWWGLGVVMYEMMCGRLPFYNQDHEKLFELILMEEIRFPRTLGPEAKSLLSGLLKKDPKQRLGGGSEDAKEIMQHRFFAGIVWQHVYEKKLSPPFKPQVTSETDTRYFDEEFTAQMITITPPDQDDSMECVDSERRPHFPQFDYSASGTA
Sequence of Tyrosine-protein kinase ABL1 (Homo sapiens) (P00519 whole entry): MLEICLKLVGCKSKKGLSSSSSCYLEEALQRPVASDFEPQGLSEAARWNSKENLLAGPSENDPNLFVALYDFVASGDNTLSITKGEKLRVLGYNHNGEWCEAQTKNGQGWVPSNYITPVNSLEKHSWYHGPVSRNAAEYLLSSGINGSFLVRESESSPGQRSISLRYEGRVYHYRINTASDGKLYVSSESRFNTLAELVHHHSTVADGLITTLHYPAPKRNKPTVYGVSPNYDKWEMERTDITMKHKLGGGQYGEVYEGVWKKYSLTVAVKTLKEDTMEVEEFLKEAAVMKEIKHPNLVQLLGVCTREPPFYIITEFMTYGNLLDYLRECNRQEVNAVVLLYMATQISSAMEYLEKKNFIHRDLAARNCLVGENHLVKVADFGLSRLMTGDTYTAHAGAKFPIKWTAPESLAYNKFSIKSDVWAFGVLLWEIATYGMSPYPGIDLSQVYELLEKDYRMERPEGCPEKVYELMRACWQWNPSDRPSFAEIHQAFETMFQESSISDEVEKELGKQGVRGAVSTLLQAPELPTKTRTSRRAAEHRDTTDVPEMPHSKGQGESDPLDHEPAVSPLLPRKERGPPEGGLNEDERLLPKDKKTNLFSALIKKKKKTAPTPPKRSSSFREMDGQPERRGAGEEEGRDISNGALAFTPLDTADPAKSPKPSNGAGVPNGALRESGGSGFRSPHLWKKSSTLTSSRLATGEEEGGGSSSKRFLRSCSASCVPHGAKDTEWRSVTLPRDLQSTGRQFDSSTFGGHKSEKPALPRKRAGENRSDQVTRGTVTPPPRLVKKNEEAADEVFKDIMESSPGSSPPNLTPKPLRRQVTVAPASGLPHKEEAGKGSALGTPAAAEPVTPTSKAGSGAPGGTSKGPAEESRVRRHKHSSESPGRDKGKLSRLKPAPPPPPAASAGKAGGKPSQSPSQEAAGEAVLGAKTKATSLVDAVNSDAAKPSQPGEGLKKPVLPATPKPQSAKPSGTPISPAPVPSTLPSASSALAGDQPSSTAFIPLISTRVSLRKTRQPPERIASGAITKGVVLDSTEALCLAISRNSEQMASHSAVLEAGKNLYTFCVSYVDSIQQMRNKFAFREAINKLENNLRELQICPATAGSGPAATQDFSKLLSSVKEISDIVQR

Work on `Cc1cc(O)cc(-c2nn(CC#N)cc2-c2cc(NC[C@H](C)O)nc(-c3cccnc3)n2)c1` yielded an inhibition [1] of 20.4%, an inhibition [2] of -2.97% and an inhibition [3] of 21.8%. For the same compound, the inhibition [4] was 8.97%, the inhibition [5] was 3.64% and the inhibition [6] was 2.36%. It also gave an inhibition [7] of 9.32%, an inhibition [8] of 2.85% and an inhibition [9] of 5.82%. The inhibition [10] was 16.2%, the inhibition [11] was -1.17% and the inhibition [12] was 6.56%. For the same compound, the inhibition [13] was -2.23%, the inhibition [14] was 23.3% and the inhibition [15] was -8.05%. The inhibition [16] was 3.34%, the inhibition [17] was -1.67% and the inhibition [18] was -7.86%. For the same compound, the inhibition [19] was -3.43%, the inhibition [20] was 1.37% and the inhibition [21] was 7.01%. It also gave an inhibition [22] of 9.15%, an inhibition [23] of 3.83% and an inhibition [24] of -5.84%. It also gave an inhibition [25] of 10.3%, an inhibition [26] of -1.45% and an inhibition [27] of -6.97%. The inhibition [28] was -1.54%, the inhibition [29] was -0.42% and the inhibition [30] was 5.27%. For the same compound, the inhibition [31] was 5.79%, the inhibition [32] was 1.37% and the inhibition [33] was 5.91%. The inhibition [34] was 9.23%, the inhibition [35] was 5.85% and the inhibition [36] was 20.4%. It also gave an inhibition [37] of 6.65%, an inhibition [38] of 11.7% and an inhibition [39] of 28.8%. For the same compound, the inhibition [40] was 93.9%, the inhibition [41] was 8.23% and the inhibition [42] was 8.17%. The inhibition [43] was -0.14%, the inhibition [44] was -2.59% and the inhibition [45] was 3.43%.
